12 molecules from patent US20080269298A1, “Benzimidazol-1-YL-thiophene compounds for the treatment of cancer” (priority 2002, published 2008) can be followed below.

Each structure is given as a SMILES string. Where a name gives a salt, the structure may show the parent alone.

Assay [1] has as its system Normal Human foreskin fibroblasts (HFF). Nature of the assay: Methylene Blue Growth Inhibition Assay, HFF. The class given is cell-based. The conditions noted are these: 72 h, Cell Line HFF, 3 days, read-out: MeB IC50. Here is the method:
(§1) Normal Human foreskin fibroblasts (HFF) and human colon (HCT116, RKO), lung (H460), prostate (PC3), and breast tumor (MCF7) cell lines were cultured in high glucose DMEM (Life Technologies) containing 10% fetal bovine serum (FBS) at 37° C. in a humidified 10% CO2, 90% air incubator. Cells were harvested using trypsin/EDTA, counted using a haemocytometer, and plated in 100 μl of the appropriate media, at the following densities, in a 96-well tissue culture plate (Falcon 3075): HFF 5,000 cells/well, HCT116 3,000 cells/well, RKO 2,500 cells/well, H460 2,000 cells/well, PC3 8,000 cells/well, MCF7 4,000 cells/well. The next day, compounds were diluted in DMEM containing 100 μg/ml gentamicin, at twice the final required concentration, from 10 mM stock solutions in DMSO. 100μ/well of these dilutions were added to the 100 μl of media currently on the cell plates. Medium containing 0.6% DMSO was added to control wells. Compounds diluted in DMEM were added to all cell lines. The final concentration of DMSO in all wells was 0.3%. Cells were incubated at 37° C., 10% CO2 for 3 days. Medium was removed by aspiration. Cell biomass was estimated by staining cells with […] per well methylene blue (Sigma M9140, 0.5% in 50:50 ethanol:water), and incubation at room temperature for at least 30 minutes. Stain was removed, and the plates rinsed under a gentle stream of water, and air-dried. To release stain from the cells 100 μl of solubilization solution was added (1% N-lauroyl sarcosine, Sodium salt, Sigma L5125, in PBS), and plates were shaken gently for about 30 minutes. Optical density at 620 nm was measured on a microplate reader. Percent inhibition of cell growth was calculated relative to vehicle treated control wells. Concentration of compound that inhibits 50% of cell growth (IC50) was interpolated using nonlinear regression (Levenberg-Marquardt) and the equation, y=Vmax*(1-(x/(K+x)))+Y2, where “K” was equal to the IC50. In Table 1, +=10−>30 uM; ++=1−10 uM: +++=<1 uM.

Assay [2] deals with breast tumor (MCF7) cell line. In words: Methylene Blue Growth Inhibition Assay, MCF7. The class given is cell-based. The conditions noted are these: Homo sapiens, 72 h; Cell Line MCF7, 3 days; read-out: MeB IC50. Here is the method: as §1
In assay [3] the test system is lung (H460) tumor cell line. In words: Methylene Blue Growth Inhibition Assay, H460. The class given is cell-based. The conditions noted are these: Homo sapiens, NCI-H460, 72 h; Cell Line H460, 3 days; read-out: MeB IC50. Here is the method:
as §1

The subject of assay [4] is colon (RKO) tumor cell line. In words: Methylene Blue Growth Inhibition Assay, RKO. The conditions noted are these: Homo sapiens, 72 h, 3 days, read-out: MeB IC50. The format is cell-based. The method, then: as §1
Assay [5] relates to prostate (PC3) tumor cell line. Nature of the assay: Methylene Blue Growth Inhibition Assay, PC3. The format is cell-based. The conditions noted are these: Homo sapiens, 72 h; Cell Line PC3, 3 days; read-out: MeB IC50. Here is the method:
as §1

The target in assay [6] is T1, PLK1 kinase domain (Homo sapiens, UniProt P53350).
T1 construct: made in house; host or cells: baculovirus-infected T. ni insect cells
T1 sequence (P53350 21-346): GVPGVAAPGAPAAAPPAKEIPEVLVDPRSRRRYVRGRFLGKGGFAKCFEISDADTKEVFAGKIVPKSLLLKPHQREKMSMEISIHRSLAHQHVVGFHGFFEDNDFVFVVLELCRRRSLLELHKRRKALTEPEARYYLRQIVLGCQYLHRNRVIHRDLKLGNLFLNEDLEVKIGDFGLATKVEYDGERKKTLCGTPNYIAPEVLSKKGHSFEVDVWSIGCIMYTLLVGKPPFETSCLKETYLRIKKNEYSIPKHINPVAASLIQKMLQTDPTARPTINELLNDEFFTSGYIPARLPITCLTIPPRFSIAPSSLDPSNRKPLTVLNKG
In words: Assay for Inhibition of PLK1 (SPA enzyme activity). The format is biochemical. The conditions noted are these: 2 μM ATP, read-out: Ave pIC50 PLK Enzyme Inhibition (converted). The method, then:
All procedures were performed at 4° C. Cells were lysed in so mM HEPES, 200 mM NaCl, so mM imidazole, 5% glycerol; pH 7.5. The homogenate was centrifuged at 14K rpm in a SLA-1500 rotor for 1 hr and the supernatant filtered through a 1.2 micron filter. The supernatant was loaded onto a Nickel chelating Sepharose (Amersham Pharmacia) column and washed with lysis buffer. Protein was eluted using 20%, 30% and 100% buffer B steps where buffer B is 50 mM HEPES, 200 mM NaCl, 300 mM imidazole, 5% glycerol; pH 7.5. Fractions containing PLK were determined by SDS-PAGE. Fractions containing PLK were diluted five-fold with so mM HEPES, 1 mM DTT, 5% glycerol; pH 7.5, then loaded on an SP Sepharose (Amersham Pharmacia) column. After washing the column with so mM HEPES, 1 mM DTT, 5% glycerol; pH 7.5, PLK was step eluted with so mM HEPES, 1 mM DTT, 500 mM NaCl; 5% glycerol; pH 7.5. PLK was concentrated using a 10 kDa molecular weight cutoff membrane and then loaded onto a Superdex 200 gel filtration (Amersham Pharmacia) column equilibrated in 25 mM HEPES, 1 mM DTT, 500 mM NaCl, 5% glycerol; pH 7.5. Fractions containing PLK were determined by SDS-PAGE. PLK was pooled, aliquoted and stored at −80° C. Samples were quality controlled using mass spectrometry, N-terminal sequencing and amino acid analysis.
B. Enzyme activity+/−inhibitors was determined as follows:
Compounds were added to the plate (1 μl in […]). […] Reaction Mix B is prepared as follows at 4° C.: • Reaction Mix B (Enzyme Mix) • 25 mM HEPES, pH 7.2 • 15 mM MgCl2 • 0.15 mg/ml BSA • 2 mM DTT • 2-10 nM PLK1 kinase domain
Reaction Mix A (20 μl) is added per well. Reaction Mix B (20 μl) is added per well. Incubate 1.5 hrs. at RT. The enzymatic reaction is stopped with 175 μl of SPA/EDTA bead mix (29 mM EDTA, 2.5 mg/ml Streptavidin-coated SPA in Standard Dulbecco's PBS (without Mg^2+ and Ca^2+), 60 μM ATP). Plates are sealed spun (after a 1 hr incubation at RT) at 1,000×g for 7 min or settled overnight, then plates counted in Packard TopCount for 30 seconds/well.

Assay [7] deals with colon (HCT116) tumor cell line. Nature of the assay: Methylene Blue Growth Inhibition Assay, HCT116. The class given is cell-based. The conditions noted are these: Homo sapiens, HCT-116, 72 h; Cell Line HCT116, 3 days; read-out: MeB IC50. Here is the method:
as §1

Take `COc1cc2ncn(-c3cc(O)c(C(N)=O)s3)c2cc1OC` [Example 152, 5-(5,6-Dimethoxy-1H-benzimidazol-1-yl)-3-hydroxythiophene-2-carboxamide trifluoroacetate]: the IC50 in assay [1] was above 10 µM; in assay [2], above 10 µM; in assay [3], above 10 µM; in assay [4], above 10 µM; in assay [5] it was above 10 µM; in assay [6] it was 0.1 to 10 µM. In assay [7], the IC50 was above 10 µM.
In the case of `COc1cc2ncn(-c3cc(OCc4cccc(N)c4)c(C(N)=O)s3)c2cc1OC` [Example 96, 3-[(3-Aminobenzyl)oxy]-5-(5,6-dimethoxy-1H-benzimidazol-1-yl)thiophene-2-carboxamide], the IC50 is above 10 µM in assay [1]; 1 to 10 µM in assay [2]; 1 to 10 µM in assay [3]; 1 to 10 µM in assay [4]; above 10 µM in assay [5]; below 0.1 µM in assay [6]. Further, the IC50 in assay [7] was in the range of 1 to 10 µM.
For `COC(=O)c1sc(-n2cnc3cc(OC)c(OC)cc32)cc1OS(=O)(=O)C(F)(F)F` [Example 150, Methyl 5-(5,6-dimethoxy-1H-benzimidazol-1-yl)-3-{[(trifluoromethyl)sulfonyl]oxy}thiophene-2-carboxylate], the IC50 in assay [1] is above 10 µM; in assay [2], above 10 µM; in assay [3], above 10 µM; in assay [4], above 10 µM; in assay [5], above 10 µM; in assay [6] it was 0.1 to 10 µM. Further, in assay [7], the IC50 was above 10 µM.
In the case of `COc1cc2ncn(-c3cc(OCc4ccccc4C(F)(F)F)c(C(N)=O)s3)c2cc1OC` [Example 63, 5-(5,6-Dimethoxy-1H-benzimidazol-1-yl)-3-{[2-(trifluoromethyl)-benzyl]oxy}thiophene-2-carboxamide], the IC50 in assay [1] was 1 to 10 µM; in assay [2], below 1 µM; in assay [3], below 1 µM; in assay [4] it was below 1 µM; in assay [5], 1 to 10 µM; in assay [6] it was below 0.1 µM. For the same molecule, the IC50 in assay [7] was below 1 µM.
Take `O=C(O)c1sc(-n2cnc3ccc(Cl)cc32)cc1OCc1ccc(F)cc1F` [Example 71, 5-(6-Chloro-1H-benzimidazol-1-yl)-3-[(2,4-difluorobenzyl)oxy]-thiophene-2-carboxylic acid]: the IC50 in assay [1] is above 10 µM; in assay [2], above 10 µM; in assay [3], above 10 µM; in assay [4], above 10 µM; in assay [5], above 10 µM; in assay [6], below 0.1 µM. The IC50 in assay [7] is above 10 µM.
Consider `COc1ccc2ncn(-c3cc(OCc4ccccc4C(F)(F)F)c(C(N)=O)s3)c2c1` [Example 118], for which the IC50 in assay [1] was 1 to 10 µM; in assay [2] it was below 1 µM; in assay [3], below 1 µM; in assay [4] it was below 1 µM; in assay [5] it was above 10 µM; in assay [6], below 0.1 µM. In assay [7], the IC50 was in the range of 1 to 10 µM.
In the case of `COc1cc2ncn(-c3cc(OCc4ccnc(N)c4)c(C(N)=O)s3)c2cc1OC` [Example 100, 3-[(2-Aminopyridin-4-yl)methoxy]-5-(5,6-dimethoxy-1H-benzimidazol-1-yl)thiophene-2-carboxamide], the IC50 in assay [1] was above 10 µM; in assay [2] it was above 10 µM; in assay [3] it was above 10 µM; in assay [4], above 10 µM; in assay [5], above 10 µM; in assay [6] it was below 0.1 µM. In addition, the IC50 in assay [7] was above 10 µM.
Take `Cc1ccccc1COc1cc(-n2cnc3cc(Cl)ccc32)sc1C(=O)O` [Example 34, 5-(5-Chloro-1H-benzimidazol-1-yl)-3-[(2-methylbenzyl)oxy]thiophene-2-carboxylic acid]: the IC50 in assay [1] is above 10 µM; in assay [2] it was above 10 µM; in assay [3], above 10 µM; in assay [4], above 10 µM; in assay [5], above 10 µM; in assay [6] it was below 0.1 µM. In assay [7], the IC50 was above 10 µM.
On to `NC(=O)c1sc(-n2cnc3ccc(OCC(F)(F)F)cc32)cc1OCc1ccccc1C(F)(F)F` [Example 87, 5-[6-(2,2,2-Trifluoroethoxy)-1H-benzimidazol-1-yl]-3-{[2-(trifluoromethyl)benzyl]oxy}thiophene-2-carboxamide], for which the IC50 in assay [1] is above 10 µM; in assay [2], 1 to 10 µM; in assay [3], 1 to 10 µM; in assay [4] it was 1 to 10 µM; in assay [5] it was above 10 µM; in assay [6], below 0.1 µM. Also, the IC50 in assay [7] lay in the range of 1 to 10 µM.
Regarding `COc1cc2ncn(-c3cc(OCc4ccccc4C(O)CO)c(C(N)=O)s3)c2cc1OC` (stereo not drawn) [Example 109], the IC50 is above 10 µM in assay [1]; above 10 µM in assay [2]; above 10 µM in assay [3]; above 10 µM in assay [4]; above 10 µM in assay [5]; 0.1 to 10 µM in assay [6]. For the same molecule, the IC50 in assay [7] was above 10 µM.
Take `CS(=O)(=O)N1CCC(COc2cc(-n3cnc4cc5c(cc43)OCCO5)sc2C(N)=O)CC1` [Example 124, 5-(6,7-Dihydro-1H-[1,4]dioxino[2,3-f]benzimidazol-1-yl)-3-{[1-(methylsulfonyl)-piperidin-4-yl]methoxy}thiophene-2-carboxamide]: the IC50 in assay [1] was above 10 µM; in assay [2], above 10 µM; in assay [3] it was above 10 µM; in assay [4], above 10 µM; in assay [5], above 10 µM; in assay [6], 0.1 to 10 µM. In assay [7], the IC50 was above 10 µM.
As to `COc1cc2ncn(-c3cc(OCc4ccccc4C(F)(F)F)c(C(N)=O)s3)c2cc1OCCN1CCOCC1` [Example 137, 5-(5-(Methyloxy)-6-{[2-(4-morpholinyl)ethyl]oxy}-1H-benzimidazol-1-yl)-3-({[2-(trifluoromethyl)phenyl]methyl}oxy)-2-thiophenecarboxamide], the IC50 in assay [1] is above 10 µM; in assay [2] it was 1 to 10 µM; in assay [3] it was 1 to 10 µM; in assay [4], 1 to 10 µM; in assay [5], 1 to 10 µM; in assay [6] it was below 0.1 µM. The IC50 in assay [7] is below 1 µM.
